The record followed here is patent EP4552639A1, “COMPOUNDS FOR USE IN THE TREATMENT OF GASTROINTESTINAL STROMAL TUMOR (GIST)” (priority 2023, dated 2025).

The subject of the experiment is KIT/PDGFRA-mutated cell lines. The experiment in a line: Cell viability assay (GR50). To be noted: Figure 2. In kind it is cell-based. As for the experimental part:
Cell viability assays were performed as previously described (Grunewald, S., et al., Resistance to avapritinib in PDGFRA-driven GIST is caused by secondary mutations in the PDGFRA kinase domain. Cancer Discov, 2020). To generate the results presented in Figures 2 and 3, cells were plated at 4000-16000 cells/well in a 96-well plate and cultured overnight. Cells were then incubated in triplicates with media containing inhibitors or solvent control (DMSO) for 72 hours. The sulforhodamine B (SRB) assay was used according to the method of Skehan and colleagues (Skehan, P., et al., New colorimetric cytotoxicity assay for anticancer-drug screening. J.Natl.Cancer Inst., 1990. 82(13): p. 1107-1112).
To generate the results in for the KIT-driven cell lines (GIST-T1; T1-D816E, and T1-V654A) in Figures 1, 6, 7, and 8, cells were plated in triplicates at 400 cells/well in a 384-well plate with media containing inhibitors or solvent control (DMSO) and incubated for 72 hours. The Cell Titer Glo assay (Promega) was applied according to manufacturer's instructions. Absorption or luminescence was measured with a SPARK™ Plate reader (Tecan, Switzerland). One measurement of untreated cells at the at the start of treatment served as baseline for growth reduction (GR) calculations. […]

In the case of `NC(=O)Nc1cc(-c2cccc(F)c2)sc1C(=O)N[C@H]1CCCNC1` [Preparation Example 3a.1, (S)-5-(3-fluorophenyl)-N-(piperidin-3-yl)-3-ureidothiophene-2-carboxamide], the “cellular GR50 (concentration of a drug that reduces cell growth rate by half)” value is 1 to 30 nM.
